This assay concerns the target T1, human Fatty Acid Synthase (Homo sapiens, UniProt P49327).
T1 construct: made in house
In words: Human FAS enzyme assay (decrease in NADPH fluorescence). The class given is biochemical. The note with it: % inhibition at a concentration of 100 μmolar. The essentials: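 In-house human FAS was preincubated with compound and NADPH for 15 min at room temperature in 0.1 M Tris pH 7.5 with EDTA, glutathione and BSA. Malonyl CoA and acetyl CoA (500 μM and 150 μM in the added mix) were then added for 60 min. IC50 came from time-zero-subtracted NADPH fluorescence (340/460 nm).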

Each structure is given as a SMILES string.

T1 sequence (P49327 whole entry): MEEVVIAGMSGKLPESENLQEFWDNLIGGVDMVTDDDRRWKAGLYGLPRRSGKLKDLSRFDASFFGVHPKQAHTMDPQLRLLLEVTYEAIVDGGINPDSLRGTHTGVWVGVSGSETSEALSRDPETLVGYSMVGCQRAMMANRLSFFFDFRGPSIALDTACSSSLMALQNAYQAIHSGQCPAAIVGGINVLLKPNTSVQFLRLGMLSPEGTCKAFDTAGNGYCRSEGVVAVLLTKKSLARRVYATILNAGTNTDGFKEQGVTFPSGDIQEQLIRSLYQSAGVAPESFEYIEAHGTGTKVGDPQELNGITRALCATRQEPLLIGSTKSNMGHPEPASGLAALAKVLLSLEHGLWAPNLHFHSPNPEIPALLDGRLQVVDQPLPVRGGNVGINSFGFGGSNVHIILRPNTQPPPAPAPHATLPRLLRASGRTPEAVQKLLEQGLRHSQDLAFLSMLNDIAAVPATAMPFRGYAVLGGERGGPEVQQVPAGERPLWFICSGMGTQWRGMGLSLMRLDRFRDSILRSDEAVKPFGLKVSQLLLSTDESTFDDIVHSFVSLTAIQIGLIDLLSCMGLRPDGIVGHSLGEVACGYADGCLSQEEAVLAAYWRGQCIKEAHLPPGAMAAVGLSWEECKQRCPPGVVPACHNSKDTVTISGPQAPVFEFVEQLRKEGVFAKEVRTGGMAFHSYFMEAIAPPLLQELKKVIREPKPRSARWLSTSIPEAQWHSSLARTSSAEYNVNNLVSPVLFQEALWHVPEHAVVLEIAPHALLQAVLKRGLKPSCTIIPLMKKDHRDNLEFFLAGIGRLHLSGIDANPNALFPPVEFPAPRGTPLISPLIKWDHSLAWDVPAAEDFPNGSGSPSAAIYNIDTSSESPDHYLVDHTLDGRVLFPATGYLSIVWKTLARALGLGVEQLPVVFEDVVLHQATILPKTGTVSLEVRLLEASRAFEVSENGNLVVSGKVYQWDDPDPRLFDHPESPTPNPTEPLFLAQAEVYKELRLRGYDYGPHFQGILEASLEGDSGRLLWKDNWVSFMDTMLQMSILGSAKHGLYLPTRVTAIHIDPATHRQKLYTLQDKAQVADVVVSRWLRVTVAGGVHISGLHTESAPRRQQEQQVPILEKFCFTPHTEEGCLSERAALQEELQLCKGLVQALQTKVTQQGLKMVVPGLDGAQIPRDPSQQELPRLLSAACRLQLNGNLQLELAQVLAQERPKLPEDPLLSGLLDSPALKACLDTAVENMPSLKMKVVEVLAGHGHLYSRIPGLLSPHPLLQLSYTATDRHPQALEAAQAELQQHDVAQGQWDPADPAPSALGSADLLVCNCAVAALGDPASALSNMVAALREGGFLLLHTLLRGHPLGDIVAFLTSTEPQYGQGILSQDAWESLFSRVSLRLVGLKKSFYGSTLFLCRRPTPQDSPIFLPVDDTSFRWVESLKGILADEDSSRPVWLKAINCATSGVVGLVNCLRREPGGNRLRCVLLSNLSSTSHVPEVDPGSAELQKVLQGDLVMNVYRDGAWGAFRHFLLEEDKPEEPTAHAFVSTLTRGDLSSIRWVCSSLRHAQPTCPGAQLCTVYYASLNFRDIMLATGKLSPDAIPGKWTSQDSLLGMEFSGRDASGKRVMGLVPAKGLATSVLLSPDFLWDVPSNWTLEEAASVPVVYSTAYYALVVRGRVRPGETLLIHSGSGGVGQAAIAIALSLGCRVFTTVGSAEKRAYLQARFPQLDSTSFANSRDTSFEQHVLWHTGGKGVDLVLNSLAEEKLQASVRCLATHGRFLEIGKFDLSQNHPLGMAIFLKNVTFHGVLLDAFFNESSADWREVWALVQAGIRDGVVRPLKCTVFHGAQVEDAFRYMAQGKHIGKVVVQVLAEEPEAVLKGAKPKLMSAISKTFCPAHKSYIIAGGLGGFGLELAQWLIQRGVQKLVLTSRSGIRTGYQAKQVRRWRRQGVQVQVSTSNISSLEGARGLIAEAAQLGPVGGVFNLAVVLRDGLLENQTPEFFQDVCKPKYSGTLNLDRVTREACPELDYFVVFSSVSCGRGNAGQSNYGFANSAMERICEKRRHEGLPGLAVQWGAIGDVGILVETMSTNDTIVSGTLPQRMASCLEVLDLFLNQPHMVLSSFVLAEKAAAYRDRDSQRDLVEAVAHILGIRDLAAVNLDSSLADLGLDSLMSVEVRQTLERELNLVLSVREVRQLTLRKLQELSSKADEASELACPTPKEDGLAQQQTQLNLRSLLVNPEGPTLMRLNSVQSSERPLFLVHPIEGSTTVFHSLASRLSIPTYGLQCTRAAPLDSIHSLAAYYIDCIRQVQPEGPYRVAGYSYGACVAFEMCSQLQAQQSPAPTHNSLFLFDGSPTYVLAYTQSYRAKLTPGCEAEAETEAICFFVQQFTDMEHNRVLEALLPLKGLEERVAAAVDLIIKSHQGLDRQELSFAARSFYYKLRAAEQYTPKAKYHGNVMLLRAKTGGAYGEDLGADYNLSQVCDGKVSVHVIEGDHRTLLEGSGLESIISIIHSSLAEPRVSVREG

The inhibition is the change of the read-out against control, counted positive when it falls. On to `N#Cc1ccc(C2CCN(C(=O)c3cc(NC(=O)NCc4ccccc4)ccc3F)CC2)cc1` [Example 224, 1-benzyl-3-[3-[4-(4-cyanophenyl)piperidine-1-carbonyl]-4-fluoro-phenyl]urea], for which the inhibition at 100 µM turned out to be 71.9%.

As to `COC(C)(C)CNC(=O)Nc1cc(C(=O)N2CCC(c3ccc(C#N)cc3)CC2)ccc1C` [Example 159, 1-[5-[4-(4-cyanophenyl)piperidine-1-carbonyl]-2-methyl-phenyl]-3-(2-methoxy-2-methyl-propyl)urea], the inhibition at 100 µM was determined as 88%.

In the case of `Cc1ccc(C(=O)N2CCC(c3ccc(C#N)cc3)CC2)cc1NC(=O)NCc1cn(C)cn1` [Example 267, 1-[5-[4-(4-cyanophenyl)piperidine-1-carbonyl]-2-methyl-phenyl]-3-[(1-methylimidazol-4-yl)methyl]urea], the inhibition at 100 µM was found to be 90.9%.

Consider `Cc1ccc(C(=O)N2CCC(c3ccc(C#N)cc3)CC2)cc1NC(=O)NCC(=O)N(C)C` [Example 238, 2-[[5-[4-(4-cyanophenyl)piperidine-1-carbonyl]-2-methyl-phenyl]carbamoylamino]-N,N-dimethyl-acetamide], for which the inhibition at 100 µM was determined as 89.9%.

Consider `Cc1ccc(C(=O)N2CCC(c3ccc(C#N)cc3)CC2)cc1NC(=O)NCCCS(C)(=O)=O` [Example 223, 1-[5-[4-(4-cyanophenyl)piperidine-1-carbonyl]-2-methyl-phenyl]-3-(3-methylsulfonylpropyl)urea], for which the inhibition at 100 µM worked out at 92.8%.

Regarding `Cc1ccc(C(=O)N2CCC(c3ccc(C#N)cc3)CC2)cc1NC(=O)NCCNc1ncnc2[nH]cnc12` [Example 95, 1-[5-[4-(4-cyanophenyl)piperidine-1-carbonyl]-2-methyl-phenyl]-3-[2-(9H-purin-6-ylamino)ethyl]urea], the inhibition at 100 µM turned out to be 94.4%.

`Cc1ccc(C(=O)N2CCC(c3ccc(C#N)cc3)CC2)cc1NC(=O)NC1CCCCC1` [Example 228, 1-[5-[4-(4-cyanophenyl)piperidine-1-carbonyl]-2-methyl-phenyl]-3-cyclohexyl-urea]: the inhibition at 100 µM amounted to 82.1%.

In the case of `Cc1ccc(C(=O)N2CCC(c3ccc(C#N)cc3)CC2)cc1NC(=O)N[C@H]1CCCC[C@H]1NS(C)(=O)=O` (relative stereo) [Example 307, 1-[5-[4-(4-cyanophenyl)piperidine-1-carbonyl]-2-methyl-phenyl]-3-[(cis)-2-methanesulfonamidocyclohexyl]urea], the inhibition at 100 µM is 96.1%.

`Cc1ccc(C(=O)N2CCC(c3ccc(C#N)cc3)CC2)cc1NC(=O)NCc1ccc(C#N)cc1` [Example 33, 3-[(4-cyanophenyl)methyl]-1-[5-[4-(4-cyanophenyl)piperidine-1-carbonyl]-2-methyl-phenyl]urea]: the inhibition at 100 µM was 91.8%.

With `CC(=O)N1CC(NC(=O)Nc2cc(C(=O)N3CCC(c4ccc(C#N)cc4)CC3)ccc2C)C1` [Example 310, 3-(1-acetylazetidin-3-yl)-1-[5-[4-(4-cyanophenyl)piperidine-1-carbonyl]-2-methyl-phenyl]urea], the inhibition at 100 µM came out at 94.5%.

As to `CCS(=O)(=O)N1CC[C@H](NC(=O)Nc2cc(C(=O)N3CCC(c4ccc(C#N)cc4)CC3)ccc2C)C1` [Example 222, 3-[5-[4-(4-cyanophenyl)piperidine-1-carbonyl]-2-methyl-phenyl]-1-[(3S)-1-ethylsulfonylpyrrolidin-3-yl]urea], the inhibition at 100 µM is 90.7%.

`Cc1ccc(C(=O)N2CCC(c3ccc(C#N)cc3)CC2)cc1NC(=O)NCCC(=O)NCCO` [Example 230, 3-[[5-[4-(4-cyanophenyl)piperidine-1-carbonyl]-2-methyl-phenyl]carbamoylamino]-N-(2-hydroxyethyl)propanamide]: the inhibition at 100 µM worked out at 94.3%.

With `Cc1ccc(C(=O)N2CCC(c3ccc(C#N)cc3)CC2)cc1NC(=O)NCc1ccn(C)n1` [Example 290, 1-[5-[4-(4-cyanophenyl)piperidine-1-carbonyl]-2-methyl-phenyl]-3-[(1-methylpyrazol-3-yl)methyl]urea], the inhibition at 100 µM was determined as 102%.

The values are drawn from US20090118332A1, “Therapeutic Agents - 551” (AstraZeneca AB, priority 2006, published 2009).
